Patent publication US12384753B2, “17-beta-hydroxysteroid dehydrogenase type 13 inhibitors and methods of use thereof” (Enanta Pharmaceuticals, Inc., priority 2021, dated 2025)

Molecular target: Recombinant human HSD17B13 (Homo sapiens (Human), UniProt Q7Z5P4)
Assay: HSD17B13 rapid-fire mass spectrometry assay (RF/MS assay)
Format: biochemical
Details: inhibition of HSD17B13; LTB4 10 μM, NAD+ 0.5 mM, RT 3 h; IC50 ranges A-E
Summary of the method: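 Sf9-expressed human HSD17B13 (80 nM) with 10 μM LTB4 and 0.5 mM NAD+, incubated with compound (0–100 μM) for 3 h at RT in Tris pH 7.5/BSA/Tween-20. After formic acid quench, LTB4 conversion to 12-oxo-LTB4 measured by RapidFire MS/MS. IC50 from normalised residual activity, duplicates.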

Sequence of Recombinant human HSD17B13 (Q7Z5P4 20-300): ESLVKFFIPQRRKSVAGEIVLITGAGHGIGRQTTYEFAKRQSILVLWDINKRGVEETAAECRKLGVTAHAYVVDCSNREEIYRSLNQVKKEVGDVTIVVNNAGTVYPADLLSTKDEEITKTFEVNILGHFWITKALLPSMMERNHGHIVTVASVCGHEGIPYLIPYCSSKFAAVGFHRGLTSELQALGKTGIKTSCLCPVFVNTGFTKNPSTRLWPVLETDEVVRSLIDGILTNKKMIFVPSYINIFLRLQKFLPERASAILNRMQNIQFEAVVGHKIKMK

| IC50 | SMILES |
| --- | --- |
| 1000 to 100000 nM | COc1cc(C(=O)O)c(F)cc1NS(=O)(=O)c1csc(-c2ccc(C(F)(F)F)nc2C2=CCC(C)(C)CC2)n1 [Example 561] |
| 1000 to 100000 nM | COc1cc(C(=O)O)ccc1NS(=O)(=O)c1csc(-c2ccc(F)c3ccoc23)n1 [Example 89] |
| 1000 to 100000 nM | COc1cc(C(=O)O)ccc1NS(=O)(=O)c1csc(-c2cccc3ccncc23)n1 [Example 155] |
| 100 to 500 nM | COc1cc(C(=O)O)c(F)cc1NS(=O)(=O)c1csc(-c2ccc(-c3ccc(C45CC6C[C@H](C4)C[C@H](C6)C5)cc3)cc2OC)n1 [Example 744] |
| 500 to 1000 nM | COc1cc(C(=O)O)c(F)cc1NS(=O)(=O)c1csc(-c2ccc([C@]3(CO)CC[C@@H](C(F)(F)F)CC3)cc2)n1 [Example 532] |
| < 100 nM | COc1cc(C(=O)O)ccc1NS(=O)(=O)c1coc(-c2ccc(OC(F)(F)F)cc2)n1 [Example 416] |
| 100 to 500 nM | COc1cc(C(=O)O)c(F)cc1NS(=O)(=O)c1csc(-c2cnc(C3CCC(C)(C)CC3)c(F)c2)n1 [Example 554] |
| 100 to 500 nM | COc1cc(C(=O)O)c(F)cc1NS(=O)(=O)c1csc(-c2ccc(-c3ccncc3)cc2)n1 [Example 652] |
| < 100 nM | COc1cc(C(=O)O)c(F)cc1NS(=O)(=O)c1csc(-c2ccc(-c3ccc(C(F)(C(F)(F)F)C(F)(F)F)cc3)c(OC(C)C)c2F)n1 [Example 793] |
| < 100 nM | COc1cc(C(=O)O)c(F)cc1NS(=O)(=O)c1csc(-c2ccc(C3=CCC(C(C)C)CC3)cc2C(F)(F)F)n1 (centres unmarked) [Example 741] |
| 100 to 500 nM | COc1cc(C(=O)O)c(F)cc1NS(=O)(=O)c1nc(-c2ccc(C3CCCCC3)cc2)sc1C [Example 665] |
| 100 to 500 nM | CCCOc1c(C2CCC(C)(C)CC2)ccc(-c2nc(S(=O)(=O)Nc3cc(F)c(C(=O)O)cc3OC)cs2)c1F [Example 579] |
| 100 to 500 nM | O=C(O)c1cc(F)c(NS(=O)(=O)c2cnc(-c3ccc(F)cc3)s2)c(F)c1 [Example 46] |
| < 100 nM | COc1cc(C(=O)O)c(F)cc1NS(=O)(=O)c1csc(-c2ccc(C3=CCC(C(C)C)CC3)c(OC)c2F)n1 (centres unmarked) [Example 799] |
| 500 to 1000 nM | COc1cc(C(=O)O)c(F)cc1NS(=O)(=O)c1csc(-c2ccc(C3=CCC(C)(C)CC3)cc2-c2ccc(F)cc2)n1 [Example 555] |
| 100 to 500 nM | COc1cc(C(=O)O)ccc1NS(=O)(=O)c1ccc(-c2ccccc2OC)s1 [Example 193] |
| 500 to 1000 nM | COc1cc(C(=O)O)ccc1NS(=O)(=O)c1ccc(-c2ccccc2)s1 [Example 149] |
| 100 to 500 nM | COc1cc(C(=O)O)c(F)cc1NS(=O)(=O)c1csc(-c2ccc([C@H]3CC[C@@H](C(C)(C)C)CC3)cc2C(F)(F)F)n1 [Example 782] |
| 1000 to 100000 nM | COc1cc(C(=O)O)ccc1NS(=O)(=O)c1csc(N2CCN(c3ccc(N(C)C)cc3)CC2)n1 [Example 291] |
| 100 to 500 nM | COc1cc(C(=O)O)c(F)cc1NS(=O)(=O)c1csc(-c2ccc(C3CCC(C)(C)CC3)c(F)c2F)n1 [Example 521] |
| < 100 nM | COc1cc(C(=O)O)ccc1NS(=O)(=O)N1Cc2nc(C3=CCC(c4ccccc4)CC3)sc2C1 (centres unmarked) [Example 359, 3-methoxy-4-((2-(1,2,3,6-tetrahydro-[1,1′-biphenyl]-4-yl)-5,6-dihydro-4H-pyrrolo[3,4-d]thiazole)-5-sulfonamido)benzoic acid] |
| 100 to 500 nM | COc1cc(C(=O)O)ccc1NS(=O)(=O)N1Cc2nc(-c3ccc(C4CCC(C)(C)CC4)cc3)sc2C1 [Example 458] |
| 100 to 500 nM | COc1cc(C(=O)O)c(F)cc1NS(=O)(=O)c1ncc(-c2ccc(C3=CCC(C(C)(C)C)CC3)cc2)s1 (centres unmarked) [Example 633] |
| 100 to 500 nM | COc1cc(C(=O)O)ccc1NS(=O)(=O)c1csc(-c2ccccc2F)n1 [Example 96] |

| IC50 | SMILES |
| --- | --- |
| 100 to 500 nM | COc1cc(C(=O)O)c(F)cc1NS(=O)(=O)c1csc(-c2ccc([C@H]3CC[C@@H](C(C)C)CC3)c(OC(C)C)c2F)n1 [Example 586] |
| 500 to 1000 nM | COc1cc(C(=O)O)ccc1NS(=O)(=O)c1ccc(Oc2ccccc2OC)cc1 [Example 134] |
| 100 to 500 nM | CC[C@H]1CC[C@@H](c2ccc(-c3nc(S(=O)(=O)Nc4ccc(C(=O)O)cc4OC)co3)cc2)CC1 [Example 481] |
| 100 to 500 nM | COc1cc(C(=O)O)c(F)cc1NS(=O)(=O)c1csc(-c2ccc([C@H]3CC[C@@H](C(C)(C)C)CC3)c(F)c2C)n1 [Example 595] |
| 500 to 1000 nM | COc1cc(C(=O)O)ccc1NS(=O)(=O)c1csc(-c2ccc(C(=O)c3ccccc3)cc2)n1 [Example 297] |
| < 100 nM | COc1cc(C(=O)O)c(F)cc1NS(=O)(=O)c1coc(-c2ccc(C3CCC4(CC3)OCCO4)cc2)n1 [Example 618] |
| 1000 to 100000 nM | O=C(O)c1ncc(NS(=O)(=O)c2cnc(-c3ccc(F)cc3)s2)cn1 [Example 106] |
| 500 to 1000 nM | COc1cc(C(=O)O)ccc1NS(=O)(=O)c1csc(-c2ccc(C3CCOCC3)cc2)n1 [Example 370] |
| < 100 nM | COc1cc(C(=O)O)c(F)cc1NS(=O)(=O)c1csc(-c2ccc(C3=CCC(C)(C)CC3)c(OC)c2F)n1 [Example 545] |
| < 100 nM | COc1cc(C(=O)O)c(F)cc1NS(=O)(=O)c1csc(C#Cc2ccc(C)cc2)n1 [Example 220] |
| 1000 to 100000 nM | COc1cc(C(=O)O)ccc1NS(=O)(=O)c1ccc2occc2c1 [Example 139] |
| 100 to 500 nM | CCOc1c(F)c(-c2nc(S(=O)(=O)Nc3cc(F)c(C(=O)O)cc3OC)cs2)ccc1[C@H]1CC[C@H](C(F)(F)F)CC1 [Example 815] |
| 100 to 500 nM | COc1cc(C(=O)O)ccc1NS(=O)(=O)c1cnc(-c2ccc(C3=CCC(c4ccccc4)CC3)cc2)s1 (centres unmarked) [Example 451, 3-methoxy-4-((2-(2′,3′,4′,5′-tetrahydro-[1,1′:4′,1″-terphenyl]-4-yl)thiazole)-5-sulfonamido)benzoic acid] |
| 100 to 500 nM | COc1cc(C(=O)O)ccc1NS(=O)(=O)c1ccc(C2=CCC3(CC2)OCCO3)cc1F [Example 356] |
| < 100 nM | COc1cc(C(=O)O)c(F)cc1NS(=O)(=O)c1csc(-c2ccc(C3=CCC(C(F)(F)F)CC3)c(C)c2F)n1 (centres unmarked) [Example 813] |
| 100 to 500 nM | COc1cc(C(=O)O)ccc1NS(=O)(=O)c1cnc(-c2ccc(-c3ccc4c(c3)CCCC4)cc2)s1 [Example 427] |
| 100 to 500 nM | COc1cc(C(=O)O)c(F)cc1NS(=O)(=O)c1cnc(-c2ccc([C@H]3CC[C@@H](C(C)C)CC3)cc2)s1 [Example 729] |
| < 100 nM | COc1cc(C(=O)O)c(F)cc1NS(=O)(=O)c1cccc(-c2ccc([C@H]3CC[C@H](C(C)(C)C)CC3)cc2)c1F [Example 612] |
| 1000 to 100000 nM | O=C(O)c1ccc(NS(=O)(=O)c2cnc(-c3ccc(F)cc3)s2)c(C(F)(F)F)c1 [Example 45] |
| < 100 nM | COc1cc(C(=O)O)c(F)cc1NS(=O)(=O)c1csc(-c2ccc([C@H]3CC[C@H](C(C)C)CC3)cc2)n1 [Example 730] |
| < 100 nM | COc1cc(C(=O)O)c(F)cc1NS(=O)(=O)c1csc(-c2ccc(C3(O)CCC(C)(C)CC3)cc2)n1 [Example 748] |
| < 100 nM | O=C(O)c1ccc(NS(=O)(=O)c2cnc(-c3ccc(F)cc3)s2)c(O)c1 [Example 40, 4-((2-(4-fluorophenyl)thiazole)-5-sulfonamido)-3-hydroxybenzoic acid] |
| < 100 nM | COc1cc(C(=O)O)ccc1NS(=O)(=O)c1csc(-c2ccc(C3CCC3)cc2)n1 [Example 351] |
